The results in this text go back to ChEMBL document CHEMBL1152335, “NMR strategy for unraveling structures of bioactive sponge-derived oxy-polyhalogenated diphenyl ethers” (J Nat Prod, 2009).

This assay deals with Induced myeloid leukemia cell differentiation protein Mcl-1 (Homo sapiens, UniProt Q07820). Kind of assay: Inhibition of Bak binding to Mcl-1 by FRET assay.
Induced myeloid leukemia cell differentiation protein Mcl-1, sequence (Q07820 whole entry): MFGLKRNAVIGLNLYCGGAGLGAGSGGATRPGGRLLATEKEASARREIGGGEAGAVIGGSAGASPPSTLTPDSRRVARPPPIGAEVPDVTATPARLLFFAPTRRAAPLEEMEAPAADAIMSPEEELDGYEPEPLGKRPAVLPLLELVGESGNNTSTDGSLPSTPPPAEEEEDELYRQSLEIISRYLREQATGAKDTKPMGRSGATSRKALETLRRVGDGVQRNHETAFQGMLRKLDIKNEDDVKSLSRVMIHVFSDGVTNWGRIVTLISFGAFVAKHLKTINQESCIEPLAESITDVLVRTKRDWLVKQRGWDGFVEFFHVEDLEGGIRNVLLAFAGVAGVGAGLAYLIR
For `Oc1c(Br)c(Br)cc(Br)c1Oc1ccc(Br)cc1Br`, the IC50 is more than 17.2 µM.

The molecule `Oc1c(Br)cc(Br)cc1Oc1c(O)c(Br)c(Br)c(Br)c1Br` came in with an IC50 of more than 14.8 µM. `Oc1c(Br)cc(Br)cc1Oc1cc(Br)c(Br)c(Br)c1O` had an IC50 of more than 16.8 µM. On to `COc1c(Br)c(Br)cc(Br)c1Oc1cc(Br)cc(Br)c1O`, for which the half-maximal inhibitory concentration (IC50) is more than 16.4 µM.

`Oc1c(Br)cc(Br)cc1Oc1c(Br)cc(Br)c(Br)c1O` registered an IC50 of more than 16.8 µM. `Oc1cc(Br)c(Br)c(Br)c1Oc1cc(Br)cc(Br)c1O` displayed a concentration for half-maximal inhibition (IC50) of more than 16.8 µM. For `Oc1c(Br)cc(Br)cc1Oc1c(O)c(Br)cc(Br)c1Br` the value was more than 16.8 µM; for `Oc1cc(Br)cc(Br)c1Oc1ccc(Br)cc1Br`, 4.78 µM.
